# Results reported in EP4775208A1, “USE OF PRMT5 INHIBITOR IN TREATMENT OF TUMORS OR CANCERS” (Apeiron Therapeutics (Hong Kong) Ltd., priority 2023, dated 2025).
# Columns and labels:
# Format in all cases: cell-based
# [1] = system: HCT-116 MTAP(-/-) deficient cells; experiment: Inhibition of proliferation of HCT-116 MTAP(-/-) deficient cells (Cell-Titer Glo); settings: 8 days
# Procedure, shortened: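 Cells in log-phase growth, RPMI-1640 with 10% FBS, seeded and left overnight at 37°C, 5% CO2. Compound tested at 0–10,000 nM (10 points, 3-fold, 0.1% DMSO) for 8 days at 37°C, 5% CO2. Viability read by CellTiter-Glo luminescence.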
# [2] = system: HCT-116 MTAP wild-type cells; experiment: Inhibition of proliferation of HCT-116 MTAP wild-type cells (Cell-Titer Glo); settings: 8 days
# Procedure, shortened: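 MTAP wild-type HCT-116 cells were seeded, cultured overnight and then exposed to compound from 10,000 nM down in a 10-point, 3-fold series (0.1% DMSO). Plates were incubated 8 days at 37°C, 5% CO2. Proliferation was read by Cell-Titer Glo viability luminescence.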
# [3] = system: U87MG MTAP(-/-) cells; experiment: Inhibition of proliferation of U87MG MTAP(-/-) cells (CellTiter-Glo); settings: cell proliferation, 6 days
# Experimental: Test 7: Assay for Inhibitory Activity of Compounds against U87MG MTAP(-/-) Cell Proliferation
# Materials and Cells: The U87MG MTAP(-/-) cell line was purchased from ATCC (USA). Cell culture media, fetal bovine serum (FBS), and penicillin-streptomycin were purchased from Thermo Fisher Scientific (USA). 384-well plates were purchased from PerkinElmer (USA). The CellTiter-Glo assay kit was purchased from Promega (USA).
# Cell Culture: U87MG MTAP(-/-) cells were cultured in a medium supplemented with 10% fetal bovine serum (FBS) and 1% penicillin-streptomycin at 37°C with 5% CO2. Only cells in the logarithmic growth phase were used for experiments.
# Cell Proliferation Inhibition Assay: The antiproliferative activity of the compounds against U87MG MTAP(-/-) cells was assessed using the CellTiter-Glo assay kit. Cell suspensions were adjusted to the appropriate density and seeded into 384-well plates at a volume of 40 µL per well, then incubated overnight at 37°C with 5% CO2. Compounds (40 nL) were added to each well to achieve final concentrations ranging from 0 to 10,000 nM (starting concentration 10,000 nM, 3-fold serial dilutions, 10 dose points), with a final DMSO concentration of […]. The cell plates were incubated at 37°C with 5% CO2 for 6 days. Subsequently, 40 µL of CellTiter-Glo reagent was added to measure cell viability. Paclitaxel was used as a control compound.
Compound,IC50 [1],IC50 [2],IC50 [3],"IC50 ([1]; Homo sapiens, HCT-116, 192 h)","IC50 ([2]; Homo sapiens, HCT-116, 192 h)","IC50 ([3]; Homo sapiens, U-87 MG, 144 h)"
"4-amino-N-methyl-N-(6-(trifluoromethyl)-2, 3-dihydrobenzo[b]thi ophen-3-yl)imidazo[1, 5-a]quinoxaline-8-car boxamide [Example 43]",22.4 nM,2990 nM,322 nM,–,–,–
"C[C@H]1OC[C@@H](N(C)C(=O)c2ccc3nc(N)c4cncn4c3c2)c2ccc(F)cc21 (single isomer, unassigned) [Example 96]",–,–,–,6.6 nM,1260 nM,91.1 nM
"C[C@H]1OC[C@@H](N(C)C(=O)c2cc3c(cn2)nc(N)c2cncn23)c2ccc(C(F)(F)F)cc21 (single isomer, unassigned) [Example 98]",–,–,–,1.4 nM,114 nM,14.2 nM
"CN(C(=O)c1ccc2nc(N)c3cncn3c2c1)[C@@H]1COc2cc(S(F)(F)(F)(F)F)ccc21 (single isomer, unassigned) [Example 104]",–,–,–,–,–,28.8 nM
"C[C@H]1OC[C@@H](N(C)C(=O)c2ccc3nc(N)c4cncn4c3c2)c2ccc(C(F)(F)F)cc21 (single isomer, unassigned) [Example 106]",–,–,–,3.5 nM,145 nM,10 nM
"Cc1cc2nc(N)c3cncn3c2cc1C(=O)N(C)[C@@H]1COc2cc(C(F)(F)F)ccc21 [Example 15, (S)-4-amino-N,7-dime thyl-N-(6-(trifluoromethyl)-2,3-dihydrobenzofuran-3-yl)imidazo[1 ,5-a]quinoxaline-8-car boxamide]",–,–,–,3.5 nM,282 nM,19.8 nM
"CC1OC[C@@H](N(C)C(=O)c2ccc3nc(N)c4cncn4c3c2)c2ccc(-c3cnn(C)c3)cc21 (stereo partly drawn) [Example 22, 4-amino-N-methyl-N-((4S)-1-methyl-7-(1-methyl-1H-pyrazol-4-yl)isochroman-4-yl)i midazo[1,5-a]quinoxa line-8-carboxamide]",–,–,–,5.1 nM,1690 nM,81.2 nM
"CN(C(=O)c1cc2c(cc1F)nc(N)c1cncn12)[C@@H]1COc2cc(-c3cnn(C(F)(F)F)c3)ccc21 [Example 33, (S)-4-amino-7-fluoro-N-methyl-N-(6-(1-(trifluoromethyl)-1H-pyrazol-4-yl)-2,3-dihydrobenzofuran-3-yl)imid azo[1,5-a]quinoxaline-8-carboxamide]",–,–,–,15.1 nM,2660 nM,81.7 nM
"C[C@H]1OC[C@@H](N(C)C(=O)c2cc3c(cn2)nc(N)c2cncn23)c2ccc(C(F)(F)F)nc21 [Example 35, 4-amino-N-methyl-N-((5S,8R)-8-methyl-2-(trifluoromethyl)-5,8-dihydro-6H-pyrano[3,4-b]pyridin-5-yl)imida zo[1,5-a]pyrido[3,4-e] pyrazine-8-carboxamide]",–,–,–,23.2 nM,2230 nM,34.8 nM
"CN(C(=O)c1cc2c(cc1C(F)(F)F)nc(N)c1cncn12)[C@@H]1COc2cc(C(F)(F)F)ccc21 [Example 36, (S)-4-amino-N-methy 1-7-(trifluoromethyl)-N-(6-(trifluoromethyl) -2,3-dihydrobenzofuran-3-yl)imidazo[1,5-a] quinoxaline-8-carbox amide]",–,–,–,36 nM,5130 nM,343 nM
"(S)-4-amino-N-(6-chl oro-2,3-dihydrobenzo furan-3-yl)-N-methyli midazo[1,5-a]quinoxa line-8-carboxamide [Example 70]",54 nM,3890 nM,–,–,–,–
"(S)-4-amino-N-(6-cya no-2,3-dihydrobenzof uran-3-yl)-N-cyclopro pylimidazo[1,5-a]quin oxaline-8-carboxamid e [Example 92]",46.6 nM,4750 nM,–,–,–,–
"(S)-4-amino-N-cyclop ropyl-N-(6-(trifluoro methyl)-2,3-dihydrob enzofuran-3-yl)imidaz o[1,5-a]pyrido[3,4-e]p yrazine-8-carboxamid e [Example 88]",24.1 nM,1850 nM,–,–,–,–
"(S)-4-amino-N-methy 1-N-(6-(trifluoromethy 1)-2,3-dihydrofuro[2,3 -b]pyridin-3-yl)imida zo[1,5-a]quinoxaline-8-carboxamide [Example 90]",36.4 nM,> 10000 nM,–,–,–,–
